Results reported in US7700088B2, “Interleukin-9 mutein peptides” (Genaera Corporation, priority 1995, dated 2010).
Entries after “also recorded” stand apart in the source; their conditions may differ.

How the values were obtained:
[1] = system: IL-9 mediated MO7e proliferation; assay: Inhibition of IL-9 mediated MO7e proliferation (acid phosphatase cell proliferation assay); type: cell-based, human; settings: for inhibition of cellular growth induced by IL-9: tyrophostins incubated with MO7e cells, compared with control (no treatment); for inhibition of cellular growth induced by IL-9 (antagonism of IL-9): peptides incubated with MO7e cells, compared with control (no peptide)
Experimental: Cell lines were used to assess the function of peptides, aminosterols, tyrophostins, rhIL-9, rmIL-9, and recombinant mutant forms of these proteins as well as all other compounds that block IL-9 function. A proliferative response was measured and compared to each of the other cytokines, variant or mutant forms of Il-9, or IL-9 antagonists. In addition, compounds were tested for their ability to antagonize the baseline proliferative response. Once a baseline proliferative response was established for a cytokine a statistically significant loss of response in assays repeated three times in triplicate was considered evidence for antagonism. A true antagonistic response was differentiated from cellular toxicity by direct observation, trypan blue staining (a technique well known to one of normal skill in the art), and loss of acid phosphatase activity. Specificity was assessed for the antagonist by evaluating whether the activity was substantially expressed against other proliferative agents such as steel factor, interleukin 3, or interleukin 4.
The MO7e line is a human megakaryoblastic cell line, cultured in RPMI 1640 (GIBCO/BRL, Gaithersburg, Md.), 20% Fetal Bovine Serum (Hyclone) and 10 ng/ml IL-3 (R&D Systems, Minneapolis, Minn.). The MJ line is a cytokine independent human lymphoblastoid cell line grown in RPMI 1640 (GIBCO/BRL) K562 is a human erthroleukemia cell line, cultured in RPMI 1640 (GIBCO/BRL) and 10% fetal bovine serum (Hyclone). C8166-45 is a IL-9 receptor bearing line, cultured in RPMI 1640 GIBCO/BRL) and 10% Fetal bovine serum (Hyclone). All the cell lines respond to cytokines including IL-9. The cell lines are fed and reseeded at 2×10^5 cells/ml every 72 hours.
The cells were centrifuged for 10 minutes at 2000 rpm and resuspended in RPMI 1640 with 0.5% Bovine Serum Albumin (GIBCO/BRL, Gaithersburg, Md.) and insulin-transferrin-selenium (ITS) cofactors (GIBCO/BRL, Gaithersburg, Md.). Cells were counted using a hemocytometer and diluted to a concentration of 1×10^5 cells/ml and plated in a 96-well microtiter plate. Each well contained 0.15 or 0.2 ml giving a final concentration of 2×10^4 cells per well.
MO7e cells were stimulated with 50 ng/ml Stem Cell Factor (SCF) (R&D Systems, Minneapolis, Minn.) alone, 50 ng/ml SCF plus 50 ng/ml IL-3 (R&D Systems, Minneapolis, Minn.), or 50 ng/ml SCF plus 50 ng/ml IL-9. A control was included which contains cells and basal media only. Serial dilutions of test compounds (i.e., recombinant IL-9 proteins, peptides, small molecules) were added to each test condition in triplicate. The MJ cell line was used as an independent control for nonspecific cytotoxicity. Cultures were incubated for 72-96 hours at 37° C. in 5% CO2.
Cell proliferation was assayed using the Abacus Cell Proliferation Kit (Clontech, Palo Alto, Calif.) which determines the amount of intracellular acid phosphatase present as an indication of cell number. The substrate p-nitrophenyl phosphate (pNPP) was converted by acid phosphatase to p-nitrophenol which was measured as an indicator of enzyme concentration. pNPP was added to each well and incubated at 37° C. for one hour. 1N sodium hydroxide was then added to stop the enzymatic reaction, and the amount of p-nitrophenol was quantified using a Dynatech 2000 plate reader (Dynatech Laboratories, Chantilly, Va.) at 410 nm wavelength. Standard curves that compare cell number with optical absorbance were used to determine the linear range of the assay. Assay results were only used when absorbance measurements are within the linear range of the assay.

Soluble IL-9 receptor = target: T1, Soluble IL-9 receptor (Homo sapiens, UniProt Q01113); assay: Binding of recombinant IL-9 forms to soluble IL-9 receptor (anti-FLAG immunoprecipitation, Western blot); settings: 0.5 micrograms soluble receptor (amino acids 44 to 270), PBS, room temperature, 30 minutes
T1 construct: Soluble IL-9 receptor including amino acids 44 to 270 (R&D Systems); purchased R&D Systems
T1 sequence (Q01113 44-270): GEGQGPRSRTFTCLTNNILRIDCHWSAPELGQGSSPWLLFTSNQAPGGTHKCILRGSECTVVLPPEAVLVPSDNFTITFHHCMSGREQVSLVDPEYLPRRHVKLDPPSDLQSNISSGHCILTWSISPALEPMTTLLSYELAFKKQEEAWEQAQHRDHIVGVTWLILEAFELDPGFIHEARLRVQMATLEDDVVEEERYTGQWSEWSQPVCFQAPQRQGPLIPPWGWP
Experimental: Soluble IL-9 receptor including amino acids 44 to 270 (R&D Systems) was incubated with different forms of human recombinant IL-9. Varying amounts of FlagMet117 and FlagThr117 (described in Example 7) were incubated in PBS at room temperature for 30 minutes with 0.5 micrograms of soluble receptor. EBC buffer (50 mM Tris pH 7.5; 0.1 M NaCl; 0.5% NP40) was added (300 microliters) was added along with 1 microgram of anti-FLAG monoclonal antibody (IBI) and incubated for 1 hour on ice. Forty microliters of protein A sepharose solution was added to each sample and mixed for 1 hour at 4° C. Samples were centrifuged for 1 minute 11,000×G and pellets were washed 4 times with 500 microliters of EBC. Pellets were dissolved in 26 microliters of 2×SDS buffer, boiled for 4 minutes, and electrophoresed through an 18% SDS polyacrylamide gel. Western blots were performed as described in Example 15 except the blots were probed with an anti-IL-9 receptor antibody (R&D Systems).

Row | Compound | inhibition of cellular growth induced by IL-9 (antagonism of IL-9) [1] | further results
1 | N#C/C(=C\c1ccc(O)c(O)c1)C(=O)NCCCc1ccccc1 [Tyrophostin B46, reference compound] | – | inhibition of cellular growth induced by IL-9 [1]: greatest inhibition
2 | N#C/C(=C\c1ccc(O)c(O)c1)C(=O)NCCCCc1ccccc1 [Tyrophostin B56, reference compound] | – | inhibition of cellular growth induced by IL-9 [1]: greatest inhibition
3 | IL-9 FlagMet117: purified recombinant human FLAG IL-9 fusion protein with methionine at position 117 | – | binding to soluble IL-9 receptor (Soluble IL-9 receptor): bound to the soluble receptor
4 | KP-16: antagonistic peptide derived from IL-9 exon 4, IL-9 residues 43-60, SEQ. ID NO: 13 (SDNATRPAFSERLSQMTN) | considerable inhibitory activity; also recorded: act as IL-9 antagonists | –
5 | KP-20: antagonistic peptide derived from IL-9 exon 4, IL-9 residues 71-90, SEQ. ID NO: 14 (FSRVKKSVEVLKNNKAPY) | considerable inhibitory activity; also recorded: act as IL-9 antagonists | –
6 | KP-23: peptide derived from IL-9 exon 5, SEQ ID NO: 15, spanning the codon 117 polymorphism (EQPANQTTAGNALTFLKS) | antagonistic properties | –
7 | KP-24: peptide derived from IL-9 exon 5, SEQ ID NO: 16, spanning the codon 117 polymorphism (TAGNALTFLKSLLEIFQK; Residues 99-116 of Mature hIL-9 Receptor) | antagonistic properties | –
